Results taken from publication PMC8699473, “An Easily Expandable Multi-Drug LC-MS Assay for the Simultaneous Quantification of 57 Oral Antitumor Drugs in Human Plasma” (Cancers, 2021).
“And” between values parts separate entries of the source, which are not always exact repeats. Equal entries are not always repeated.

How the values were obtained:
[1] = Plasma concentrations in patients on oral antitumor therapy (LC-MS); type: in vivo, human; conditions: for Interpatient Coefficient of Variation [%]: patient plasma concentrations; for Median Concentration of All Samples [% of r.c.] / Min–Max Concentration [% of r.c.]: patient plasma, r.c. = respective cmin, all samples; for Measured plasma concentration: 24 h
[2] = design: method as in supplement references [1-55] as printed per drug; conditions: minimum steady-state blood plasma concentration after multiple dose administration; ref supplement references [1-55] per drug; cited from earlier work

Row | SMILES | cmin [2] [ng/mL] | further results
1 | C[C@]12CC[C@H](O)CC1=CC[C@@H]1[C@@H]2CC[C@]2(C)C(c3cccnc3)=CC[C@@H]12 [Abiraterone] | 9.3 | CV of plasma concentration at ±4 h of trough level ([1]; 14 patient samples): 140.8%; average concentration of the plasma samples at ±4 h of trough level ([1]; 14 patient samples): 10.2 ng/mL; range of plasma concentration at ±4 h of trough level ([1]; 14 patient samples): 0.4 to 59.5 ng/mL; Interpatient Coefficient of Variation [%] [1]: 187.3%; Median Concentration of All Samples [% of r.c.] [1]: 229.0 % of r.c.; Min–Max Concentration [% of r.c.] [1]: 4.3–1784.9 % of r.c.
2 | CN(C)C/C=C/C(=O)Nc1cc2c(Nc3ccc(F)c(Cl)c3)ncnc2cc1O[C@H]1CCOC1 [Afatinib] | 14.4 | 
3 | Cn1cnc2c(F)c(Nc3ccc(Br)cc3F)c(C(=O)NOCCO)cc21 [Binimetinib] | 53.3 | 
4 | COc1cc2nccc(Oc3ccc(NC(=O)C4(C(=O)Nc5ccc(F)cc5)CC4)cc3)c2cc1OC [Cabozantinib] | 1380 | Measured plasma concentration ([1]; 20 mg/day, ±4 h of trough level: yes): 289.4 ng/mL and 291.0 ng/mL and 551.4 ng/mL; Measured plasma concentration ([1]; 40 mg/day, ±4 h of trough level: yes): 253.5 ng/mL; Measured plasma concentration ([1]; 60 mg/day, ±4 h of trough level: no): 1225.4 ng/mL and 700.9 ng/mL and 627.0 ng/mL; Measured plasma concentration ([1]; 40/60 mg/day, ±4 h of trough level: yes): 445.6 ng/mL and 562.2 ng/mL; Interpatient Coefficient of Variation [%] [1]: 58.5%; Median Concentration of All Samples [% of r.c.] [1]: 153.3 % of r.c.
5 | O=C(c1ccc(F)c(F)c1Nc1ccc(I)cc1F)N1CC(O)([C@@H]2CCCCN2)C1 [Cobimetinib] | 127 | 
6 | C[C@@H](Oc1cc(-c2cnn(C3CCNCC3)c2)cnc1N)c1c(Cl)ccc(F)c1Cl [Crizotinib] | 274 | 
7 | CC(C)(C)c1nc(-c2cccc(NS(=O)(=O)c3c(F)cccc3F)c2F)c(-c2ccnc(N)n2)s1 [Dabrafenib] | 46.6 | Median Concentration of All Samples [% of r.c.] [1]: 722.3 % of r.c.; Min–Max Concentration [% of r.c.] [1]: 455.8–988.8 % of r.c.
8 | COc1cc2ncnc(Nc3ccc(F)c(Cl)c3)c2cc1NC(=O)/C=C/CN1CCCCC1 [Dacomitinib] | 73.1 | 
9 | Cc1nc(Nc2ncc(C(=O)Nc3c(C)cccc3Cl)s2)cc(N2CCN(CCO)CC2)n1 [Dasatinib] | 2.61 | 
10 | COC(=O)N[C@@H](C)CNc1nccc(-c2cn(C(C)C)nc2-c2cc(Cl)cc(NS(C)(=O)=O)c2F)n1 [Encorafenib] | 23 | 
11 | C#Cc1cccc(Nc2ncnc3cc(OCCOC)c(OCCOC)cc23)c1 [Erlotinib] | 1011 | 
12 | COc1cc2ncnc(Nc3ccc(F)c(Cl)c3)c2cc1OCCCN1CCOCC1 [Gefitinib] | 291 | 
13 | Cc1ccc(NC(=O)c2ccc(CN3CCN(C)CC3)cc2)cc1Nc1nccc(-c2cccnc2)n1 [Imatinib] |  | Measured plasma concentration ([1]; 400 mg/day, ±4 h of trough level: yes): 1998.2 ng/mL and 1309.6 ng/mL; Interpatient Coefficient of Variation [%] [1]: 29.4%; Median Concentration of All Samples [% of r.c.] [1]: 168.9 % of r.c.
14 | CS(=O)(=O)CCNCc1ccc(-c2ccc3ncnc(Nc4ccc(OCc5cccc(F)c5)c(Cl)c4)c3c2)o1 [Lapatinib] | 780 | 
15 | O=C(Nc1cnn2ccc(N3CCC[C@@H]3c3cc(F)ccc3F)nc12)N1CC[C@H](O)C1 [Larotrectinib] | 5.14 | 
16 | Nc1cccc2c1CN(C1CCC(=O)NC1=O)C2=O (centres unmarked) [Lenalidomide] | 13 | 
17 | COc1cc2nccc(Oc3ccc(NC(=O)NC4CC4)c(Cl)c3)c2cc1C(N)=O [Lenvatinib] |  | Measured plasma concentration ([1]; 14 mg/day, ±4 h of trough level: yes): 7.8 ng/mL
18 | CCOc1cc2ncc(C#N)c(Nc3ccc(OCc4ccccn4)c(Cl)c3)c2cc1NC(=O)/C=C/CN(C)C [Neratinib] | 52.6 | 

Row | SMILES | cmin [2] [ng/mL] | further results
19 | COC(=O)c1ccc2c(c1)NC(=O)/C2=C(\Nc1ccc(N(C)C(=O)CN2CCN(C)CC2)cc1)c1ccccc1 [Nintedanib] | 13.1 | 
20 | C=CC(=O)Nc1cc(Nc2nccc(-c3cn(C)c4ccccc34)n2)c(OC)cc1N(C)CCN(C)C [Osimertinib] | 166 | Measured plasma concentration ([1]; 80 mg/day, ±4 h of trough level: no): 167.8 ng/mL; Min–Max Concentration [% of r.c.] [1]: 101.1 % of r.c.
21 | Cc1ccc(Nc2nccc(N(C)c3ccc4c(C)n(C)nc4c3)n2)cc1S(N)(=O)=O [Pazopanib] | 24000 | Measured plasma concentration ([1]; 200 mg/day, ±4 h of trough level: yes): 24300.0 ng/mL and 21520.0 ng/mL; Median Concentration of All Samples [% of r.c.] [1]: 81.5 % of r.c.; Min–Max Concentration [% of r.c.] [1]: 76.6–86.5 % of r.c.
22 | Cc1ccc(C(=O)Nc2ccc(CN3CCN(C)CC3)c(C(F)(F)F)c2)cc1C#Cc1cnc2cccnn12 [Ponatinib] | 34 | 
23 | CNC(=O)c1cc(Oc2ccc(NC(=O)Nc3ccc(Cl)c(C(F)(F)F)c3)c(F)c2)ccn1 [Regorafenib] | 1400 | 
24 | CN(C)C(=O)c1cc2cnc(Nc3ccc(N4CCNCC4)cn3)nc2n1C1CCCC1 [Ribociclib] | 732 | 
25 | CNCc1ccc(-c2[nH]c3cc(F)cc4c3c2CCNC4=O)cc1 [Rucaparib] | 1754 | 
26 | N#CC[C@H](C1CCCC1)n1cc(-c2ncnc3[nH]ccc23)cn1 [Ruxolitinib] | 11.4 | 
27 | Cc1c(C(=O)Nc2ccc(N3C[C@@H](C)O[C@@H](C)C3)nc2)cccc1-c1ccc(OC(F)(F)F)cc1 [Sonidegib] | 890 | 
28 | CNC(=O)c1cc(Oc2ccc(NC(=O)Nc3ccc(Cl)c(C(F)(F)F)c3)cc2)ccn1 [Sorafenib] | 3750 | 
29 | CCN(CC)CCNC(=O)c1c(C)[nH]c(/C=C2\C(=O)Nc3ccc(F)cc32)c1C [Sunitinib] | 51.6 | 
30 | O=C1CCC(N2C(=O)c3ccccc3C2=O)C(=O)N1 (centres unmarked) [Thalidomide] | 600 | 
31 | COc1cc2nccc(Oc3ccc(NC(=O)Nc4cc(C)on4)c(Cl)c3)c2cc1OC [Tivozanib] | 80 | Interpatient Coefficient of Variation [%] [1]: 53.8%; Median Concentration of All Samples [% of r.c.] [1]: 41.4 % of r.c.; Min–Max Concentration [% of r.c.] [1]: 16.4–68.3 % of r.c.
32 | CC(=O)Nc1cccc(-n2c(=O)n(C3CC3)c(=O)c3c(Nc4ccc(I)cc4F)n(C)c(=O)c(C)c32)c1 [Trametinib] | 12.1 | 
33 | CCCS(=O)(=O)Nc1ccc(F)c(C(=O)c2c[nH]c3ncc(-c4ccc(Cl)cc4)cc23)c1F [Vemurafenib] | 39000 | 
34 | CC1(C)CCC(CN2CCN(c3ccc(C(=O)NS(=O)(=O)c4ccc(NCC5CCOCC5)c([N+](=O)[O-])c4)c(Oc4cnc5[nH]ccc5c4)c3)CC2)=C(c2ccc(Cl)cc2)C1 [Venetoclax] | 520 | 
35 | CCC1=C[C@@H]2CN(C1)Cc1c([nH]c3ccccc13)[C@@](C(=O)OC)(c1cc3c(cc1OC)N(C)[C@H]1[C@@](O)(C(=O)OC)[C@H](OC(C)=O)[C@]4(CC)C=CCN5CC[C@]31[C@@H]54)C2 [Vinorelbine] | 2.6 | 
